The source of these data is PubChem BioAssay (NCI).

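Following 48 hours of exposure in 96-well plates, responses at five concentrations were used to interpolate endpoints linearly. GI50 is the concentration that inhibits growth by half. At the TGI there is no net growth.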 Where only a bound is given, the exact number is not on record here.

What all share (test): inhibition of tumour cell growth, NCI panel, 48 h
In assay [1] the test system is A549 NSCLC.
In assay [2] the test system is LOX IMVI melanoma.
Assay [3] concerns SK-MEL-28 melanoma.
In assay [4] the test system is UO-31 renal.
In assay [5] the test system is HT29 colon.
For assay [6], the system named is OVCAR-8 ovarian.
The test system of assay [7] is SNB-19 CNS.
Assay [8] has as its system SK-MEL-5 melanoma.
Assay [9] deals with HOP-62 NSCLC.
The subject of assay [10] is CCRF-CEM leukemia.
Assay [11] has as its system HCT-116 colon.
In assay [12] the test system is SK-OV-3 ovarian.
Assay [13] has as its system UACC-257 melanoma.
Assay [14] deals with EKVX NSCLC.
In assay [15] the test system is TK-10 renal.
In assay [16] the test system is NCI-H226 lung.

As for `O=C(c1ccccc1)C1S(=O)(=O)OCCOS1(=O)=O`, the TGI in [1], in assay [2], in [3], in [4], in [5] and in assay [6] was over 100 µM each time. For the same compound, the TGI in [7], in assay [8], in assay [9], in assay [10], in assay [11] and in assay [12] was over 100 µM each time. The TGI in [13], in [14] and in [15] was over 100 µM in each case.
As for `N#C/C(=C/c1ccc2c(c1)OCO2)C(=O)c1ccccc1`, the TGI in assay [1], in [3], in assay [4], in [5], in [6] and in assay [7] was over 100 µM each time. Further, the TGI in assay [8], in assay [9], in assay [10], in [11], in [12] and in assay [13] was over 100 µM each time. Besides, the TGI in [14] and in assay [15] was over 100 µM in each case.
As to `C[N+](C)(C)CC(=O)N/N=C(/C(=O)Nc1ccc(Br)cc1)C1C(=O)NC(=O)NC1=O`, the TGI in assay [1], in assay [2], in assay [3], in [4], in assay [16] and in [5] was over 100 µM throughout. The TGI in [7], in assay [8], in assay [9], in [10], in [11] and in [12] was over 100 µM in each case. Besides, the TGI in assay [13], in assay [14] and in [15] was over 100 µM throughout.
Take `O=C(CSc1nc(-c2ccccc2)c(-c2ccccc2)[nH]1)N/N=C/c1ccc(O)cc1`: the TGI in assay [1] was 69.5 µM; in assay [2], 43 µM; in assay [3], over 100 µM; in assay [4], 93.2 µM; in assay [16], 82 µM; in [5] it was 37.1 µM. In addition, the TGI in assay [6] is 48 µM; in [7] it was over 100 µM; in [9], 46.5 µM; in [10] it was over 100 µM; in [11], 63.2 µM; in assay [12] it was 65.2 µM. Moreover, the TGI is over 100 µM in assay [13], 84.4 µM in assay [14] and 72.3 µM in assay [15].
Consider `Cc1cc2c(C)n(Cc3ccccc3Cl)nc2c(C(=O)O)c1C`, for which the TGI in assay [1], in assay [2], in assay [3], in assay [4], in [16] and in [5] was over 100 µM throughout. Moreover, the TGI in assay [6], in assay [7], in [9], in assay [10], in [11] and in assay [12] was over 100 µM in each case. The TGI in [13], in assay [14] and in assay [15] was over 100 µM each time.
Take `C=C(NC(=O)C(=C)NC(=O)c1csc(C2=NC3c4csc(n4)C4NC(=O)c5csc(n5)C(C(C)(O)C(C)O)NC(=O)C5CSC(=N5)/C(=C/C)NC(=O)C(C(C)O)NC(=O)c5csc(n5)C3(CC2)NC(=O)C(C)NC(=O)C(=C)NC(=O)C(C)NC(=O)C(C(C)CC)NC2C=Cc3c(C(C)O)cc(nc3C2O)C(=O)OC4C)n1)C(N)=O` (stereo not given): the TGI in assay [1] is 58.4 µM; in assay [2], 2.45 µM; in assay [3], 3.71 µM; in assay [4], over 100 µM; in assay [16], 3.8 µM; in [5], 3.14 µM. Also, the TGI in assay [6] worked out at 10.8 µM; in [7], 8.28 µM; in [8] it was 2.58 µM; in assay [9], 99.4 µM; in assay [10], 3.49 µM; in [11], 1.77 µM. Also, the TGI in assay [12] is over 67.8 µM; in assay [13], 4.22 µM; in [14] it was over 44.1 µM; in assay [15], 31.3 µM. The GI50 in [6] is 1.6 µM.
`O=c1[nH]c2ccccc2nc1/C=C(\O)c1ccccc1O`: the TGI in assay [1], in assay [2], in assay [3], in assay [4], in assay [16] and in [5] was over 100 µM in each case. In addition, the TGI in assay [6], in assay [7], in assay [8], in assay [9], in [10] and in assay [11] was over 100 µM throughout. Further, the TGI in assay [12], in assay [13], in assay [14] and in assay [15] was over 100 µM in each case.
As for `COc1ccc([C@@H]2CC(=O)N2)cc1`, the TGI in assay [1], in assay [3], in assay [4], in assay [16], in [5] and in [6] was over 100 µM each time. Besides, the TGI in assay [7], in assay [8], in assay [9], in assay [10], in assay [11] and in assay [12] was over 100 µM throughout. Moreover, the TGI in assay [13], in assay [14] and in assay [15] was over 100 µM each time.
Turning to `O=C1/C=C(/c2ccc(O)cc2)[C@@H](O)Cc2ccc(O)cc2O1`, the TGI is over 100 µM in [1]; over 100 µM in assay [2]; over 100 µM in assay [4]; 89.6 µM in assay [16]; over 100 µM in [5]; over 100 µM in [6]. The TGI in assay [7], in assay [8], in assay [9], in assay [11], in assay [12] and in assay [13] was over 100 µM each time. Also, the TGI in [14] and in assay [15] was over 100 µM each time.
Consider `CCOC(=O)/C(=C/c1ccc(C(=O)OC)cc1)N(CC)CC`, for which the TGI is over 100 µM in assay [1]; over 100 µM in assay [2]; over 100 µM in [3]; over 100 µM in [4]; 79 µM in [16]; over 100 µM in [6]. Further, the TGI in [7] is over 100 µM; in assay [8], over 100 µM; in [9], over 100 µM; in assay [10], 93.7 µM; in assay [11], over 100 µM; in assay [12] it was over 100 µM. The TGI in assay [13], in assay [14] and in assay [15] was over 100 µM throughout.
Regarding `COCN1COCN=C1NC#N`, the TGI in assay [1], in assay [3], in assay [4], in assay [16], in assay [5] and in [6] was over 100 µM in each case. The TGI in assay [7], in [8], in assay [9], in assay [11], in [12] and in [13] was over 100 µM in each case. The TGI in assay [14] and in assay [15] was over 100 µM in each case.
For the compound `O=C1CC(c2ccccc2)=Nc2ccccc2N1`, the TGI in [1] was over 100 µM; in [2], 97.6 µM; in assay [3] it was over 100 µM; in assay [4], over 100 µM; in [16], over 100 µM; in assay [5], over 100 µM. In addition, the TGI in assay [6], in assay [7], in assay [8], in assay [9], in [10] and in assay [11] was over 100 µM in each case. Moreover, the TGI in assay [12], in [13], in assay [14] and in assay [15] was over 100 µM each time.
Turning to `O=[N+]([O-])C(/C=N/Nc1ccccc1)/C=N/Nc1ccccc1`, the TGI in assay [1], in assay [2], in [3], in assay [4], in [16] and in [5] was over 100 µM in each case. Moreover, the TGI in [6], in [7], in assay [8], in [9], in assay [10] and in [11] was over 100 µM throughout. The TGI in assay [12], in assay [13], in assay [14] and in assay [15] was over 100 µM each time.
For the compound `O=C(c1ccc(Cl)cc1)N(C(=S)N1CCN(c2ccccn2)CC1)C1CCCCC1`, the TGI was over 100 µM in [1]; over 100 µM in assay [2]; over 100 µM in assay [3]; over 100 µM in assay [4]; 70.5 µM in assay [16]; over 100 µM in assay [5]. Besides, the TGI in assay [6], in assay [7], in [8], in assay [9], in assay [10] and in assay [11] was over 100 µM each time. In addition, the TGI in assay [12], in [13] and in [15] was over 100 µM throughout.
In the case of `CCOC(=O)C(Cc1c[nH]c2cc([N+](=O)[O-])ccc12)NS(=O)(=O)c1ccc2ccccc2c1` (stereo not given), the TGI in assay [1] is over 100 µM; in assay [2], 31.6 µM; in [3] it was 32.1 µM; in [4] it was 63.5 µM; in [16] it was 48.2 µM; in [5], 31 µM. Moreover, the TGI in assay [6] was 55.7 µM; in [7], over 100 µM; in [9], 31.4 µM; in assay [10], 49.1 µM; in [11], 30.9 µM; in assay [12] it was 68.6 µM. Further, the TGI in assay [13] turned out to be 28.8 µM; in assay [14], 78.1 µM; in assay [15] it was 74.3 µM.
For the compound `NC(CSSCC(N)=NCC12CC3CC(CC(C3)C1)C2)=NCC12CC3CC(CC(C3)C1)C2`, the TGI was determined as 31.3 µM in [1]; 44.4 µM in assay [3]; 46.7 µM in assay [4]; 43.3 µM in assay [16]; 28.4 µM in assay [5]; 51.4 µM in assay [6]. Besides, the TGI was 41.5 µM in assay [7]; 36.5 µM in assay [8]; over 100 µM in [9]; 80.9 µM in assay [11]; 36.5 µM in [12]; 30.5 µM in [13]. Also, in assay [15], the TGI stood at 36.3 µM.
For `NC1=NS(=O)(=O)Nc2nc(-c3ccccc3)[nH]c21`, the TGI in assay [1], in [2], in assay [3], in assay [4], in assay [16] and in assay [5] was over 100 µM each time. For the same compound, the TGI in assay [6], in assay [7], in assay [8], in assay [10], in assay [11] and in assay [12] was over 100 µM each time. Further, the TGI in assay [13], in assay [14] and in assay [15] was over 100 µM in each case.
With `O=C1N2Cc3c4ccc5c3CN3C(=O)N6Cc7c(ccc(c7CN1C6(c1ccccc1)C23c1ccccc1)OCCOCCNCCOCCO4)OCCOCCNCCOCCO5` (stereo not given), the TGI in [1], in [3], in [4], in [16], in assay [5] and in assay [6] was over 100 µM each time. Also, the TGI in [7], in assay [8], in assay [9], in assay [10], in assay [11] and in [12] was over 100 µM in each case. Moreover, the TGI in [13] was 69 µM; in assay [14], over 100 µM; in assay [15], 56 µM.
